Reference: US20170283440A1, “CARM1 INHIBITORS AND USES THEREOF” (Epizyme, Inc., priority 2014, published 2017)

These molecules were tested against T1, Human CARM1 (PRMT4) (Homo sapiens, UniProt Q86X55) (assay: CARM1 enzyme assay on peptide substrate (3H-SAM Flashplate)). Conditions: CARM1 0.25 nM, 3H-SAM 30 nM, peptide 250 nM; read-out: Biochem IC50.
T1 construct: Flag-CARM1-His was eluted with 200 ug/ml FLAG peptide in buffer A; made in house; host or cells: HEK 293F cells infected with recombinant baculovirus (pFastBacMam)
T1 sequence (Q86X55 other isoform, or with tags, fused parts or gaps): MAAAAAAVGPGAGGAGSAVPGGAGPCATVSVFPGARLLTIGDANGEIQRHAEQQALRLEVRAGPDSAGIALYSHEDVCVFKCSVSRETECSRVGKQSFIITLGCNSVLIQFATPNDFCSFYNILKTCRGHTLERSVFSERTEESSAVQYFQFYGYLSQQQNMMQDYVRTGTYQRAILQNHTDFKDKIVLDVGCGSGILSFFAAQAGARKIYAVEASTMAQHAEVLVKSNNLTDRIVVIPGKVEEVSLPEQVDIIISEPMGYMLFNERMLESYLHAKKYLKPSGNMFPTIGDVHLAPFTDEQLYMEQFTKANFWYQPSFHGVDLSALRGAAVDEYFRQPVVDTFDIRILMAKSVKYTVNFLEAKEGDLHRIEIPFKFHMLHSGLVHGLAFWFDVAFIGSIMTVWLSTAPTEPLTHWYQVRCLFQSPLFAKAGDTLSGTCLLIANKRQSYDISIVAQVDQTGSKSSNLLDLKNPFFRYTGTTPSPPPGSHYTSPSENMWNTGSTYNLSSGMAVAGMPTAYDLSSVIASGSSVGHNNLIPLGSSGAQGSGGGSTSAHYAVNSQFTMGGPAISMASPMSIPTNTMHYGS
Type: biochemical
Procedure, shortened: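 Flag-CARM1-His (isoform 1, Δ539-561; HEK293F-expressed), 0.25 nM, preincubated 30 min RT with compound, then 30 nM 3H-SAM and 250 nM biotinylated H3(16-30) R26me1 peptide in pH 7.6 Bicine buffer, 2% DMSO. Stopped with 300 uM cold SAM; streptavidin Flashplate capture, cpm. % inhibition vs DMSO/1 mM SAH, 3- or 4-parameter fit.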

Row | Compound | IC50 [nM]
1 | CNCC(O)COc1cccc(-c2nc(NCc3c(C)cc(C)[nH]c3=O)c3cnn(C4CC4)c3n2)c1 (centres unmarked) [Example 42-5] | 100 to 1000
2 | CCc1cc(OCC(O)CNC)cc(-c2cc(N3CCOCC3)n3ncc(C(C)C)c3n2)c1 (centres unmarked) [Example 20-6] | 100 to 1000
3 | CC(C)n1ncc2c(C(=O)NCC3CCOCC3)cc(-c3cccc(OCC(O)CN)c3)nc21 (centres unmarked) [Example 3-3] | 100 to 1000
4 | CNCC(O)COc1cc(C#N)cc(-c2cc(NC3CCOCC3)c3cnn(C(C)C)c3n2)c1 (centres unmarked) [Example 11-4] | 100 to 1000
5 | CNCC(O)COc1cc(OC)cc(-c2cc(N3CC4CCC(C3)O4)n3ncc(C(C)C)c3n2)c1 (centres unmarked) [Example 43-6] | 100 to 1000
6 | CNCC(O)COc1cc(Cl)cc(-c2cc(N3C[C@H]4CC[C@@H](C3)O4)n3ncc(C(C)C)c3n2)c1 (some centres unmarked) [Example 12-9] | 100 to 1000
7 | Cc1cc(C)c(CNC(=O)c2cc(-c3cccc(OCC(O)CN)c3)nc3nn(C(C)C)cc23)c(=O)[nH]1 (centres unmarked) [Example 29-9] | 100 to 1000
8 | CNCC(O)COc1cccc(-c2nc(NCc3cc(C)nn3C)c3cnn(C4CC4)c3n2)c1 (centres unmarked) [Example 34-5] | < 100
9 | NCC(O)COc1cccc(-c2nc(NCc3ccccn3)c3cnn(C4CC4)c3n2)c1 (centres unmarked) [Example 13-5] | 100 to 1000
10 | CNCC(O)COc1cc(OC)cc(-c2cc(N3CCOCC3)c3cnn(C(C)C)c3n2)c1 (centres unmarked) [Example 8-4] | < 100
11 | CNCC(O)COc1cc(OC(F)(F)F)cc(-c2cc(NC3CCOCC3)c3cnn(C(C)C)c3n2)c1 (centres unmarked) [Example 28-4] | 100 to 1000
12 | CNCC(O)COc1cccc(-c2cc(N(C)Cc3ccccn3)c3cnn(C(C)C)c3n2)c1 (centres unmarked) [Example 3-9] | < 100
13 | CC(C)n1ncc2c(N3CCOCC3)cc(-c3cccc(CCC(O)CN)c3)nc21 (centres unmarked) [Example 13-9] | 100 to 1000
14 | CNCC(O)COc1cccc(-c2cc(NCCCCCCNC(=O)c3ccn(C)n3)c3cnn(C(C)C)c3n2)c1 (centres unmarked) [Example 66-1] | < 100

Results, then the molecule that gave them:

Row | IC50 [nM] | Compound
15 | < 100 | CNCC(O)COc1cc(OC)cc(-c2cc(N(C)C3CCOCC3)n3ncc(C(C)C)c3n2)c1 (centres unmarked) [Example 2-6]
16 | < 100 | CNCC(O)COc1cc(OC)cc(-c2cc(-c3cnc4[nH]ccc4c3)nc3c(C(C)C)cnn23)c1 (centres unmarked) [Example 1-7]
17 | < 100 | CNCC(O)COc1cccc(-c2nc(NCc3ccccn3)c3cnn(C(C)(C)C)c3n2)c1 (centres unmarked) [Example 33-5]
18 | < 100 | CNCC(O)COc1cccc(-c2nc(N3CCOCC3)c3cnn(C(C)(C)C)c3n2)c1 (centres unmarked) [Example 20-5]
19 | < 100 | CNCC(O)COc1cc(Cl)cc(-c2cc(NC3CCOCC3)c3cnn(C(C)C)c3n2)c1 (centres unmarked) [Example 2-4]
20 | < 100 | Cc1cc(C)c(CNC(=O)c2cc(-c3cccc(OCC(O)CN)c3)nc3c2cnn3C(C)C)c(=O)[nH]1 (centres unmarked) [Example 2-8]
21 | < 100 | CC(C)n1ncc2c(N[C@@H]3CO[C@H]4OCC[C@H]43)cc(-c3cccc(OCC(O)CN)c3)nc21 (some centres unmarked) [Example 5-8]
22 | < 100 | CNCC(O)COc1cc(Cl)cc(-c2cc(N[C@@H]3CCOC3)n3ncc(C(C)C)c3n2)c1 (some centres unmarked) [Example 29-6]
23 | < 100 | Cc1nn(C(C)C)c2nc(-c3cccc(OCC(O)CN)c3)cc(N3CCOCC3)c12 (centres unmarked) [Example 1-2]
24 | < 100 | CC(C)n1ncc2c(N3CCOCC3)cc(-c3cc(F)cc(OCC(O)CN)c3)nc21 (centres unmarked) [Example 7-8]
25 | < 100 | Cc1cc(OCC(O)CN)cc(-c2cc(N3CCOCC3)c3cnn(C(C)C)c3n2)c1 (centres unmarked) [Example 4-4]

The molecules below were run on asymmetric di-methyl PABP1 in RKO cells (assay: RKO methylation assay (In Cell Western for asymmetric di-methyl PABP1)). Conditions: Homo sapiens, 48 hours incubation, read-out: Cellular IC50.
Type: cell-based
Procedure, shortened: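 RKO cells treated 48 h at 37 °C, then fixed, methanol-permeabilized and probed for asymmetric di-methyl PABP1 (16 h, 4 °C) with DRAQ5 counterstain; 800/700 nm intensity ratio read.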

Row | Compound | IC50 [nM]
26 | CNCC(O)COc1cccc(-c2nc(NCc3c(C)cc(C)[nH]c3=O)c3cnn(C4CC4)c3n2)c1 (centres unmarked) [Example 42-5] | > 20000
27 | CCc1cc(OCC(O)CNC)cc(-c2cc(N3CCOCC3)n3ncc(C(C)C)c3n2)c1 (centres unmarked) [Example 20-6] | > 20000
28 | CC(C)n1ncc2c(C(=O)NCC3CCOCC3)cc(-c3cccc(OCC(O)CN)c3)nc21 (centres unmarked) [Example 3-3] | > 20000
29 | CNCC(O)COc1cc(C#N)cc(-c2cc(NC3CCOCC3)c3cnn(C(C)C)c3n2)c1 (centres unmarked) [Example 11-4] | > 20000
30 | CNCC(O)COc1cc(OC)cc(-c2cc(N3CC4CCC(C3)O4)n3ncc(C(C)C)c3n2)c1 (centres unmarked) [Example 43-6] | > 20000
31 | CNCC(O)COc1cc(Cl)cc(-c2cc(N3C[C@H]4CC[C@@H](C3)O4)n3ncc(C(C)C)c3n2)c1 (some centres unmarked) [Example 12-9] | > 20000
32 | Cc1cc(C)c(CNC(=O)c2cc(-c3cccc(OCC(O)CN)c3)nc3nn(C(C)C)cc23)c(=O)[nH]1 (centres unmarked) [Example 29-9] | > 20000
33 | CNCC(O)COc1cccc(-c2nc(NCc3cc(C)nn3C)c3cnn(C4CC4)c3n2)c1 (centres unmarked) [Example 34-5] | > 20000
34 | NCC(O)COc1cccc(-c2nc(NCc3ccccn3)c3cnn(C4CC4)c3n2)c1 (centres unmarked) [Example 13-5] | > 20000
35 | CNCC(O)COc1cc(OC)cc(-c2cc(N3CCOCC3)c3cnn(C(C)C)c3n2)c1 (centres unmarked) [Example 8-4] | 10000 to 20000
36 | CNCC(O)COc1cc(OC(F)(F)F)cc(-c2cc(NC3CCOCC3)c3cnn(C(C)C)c3n2)c1 (centres unmarked) [Example 28-4] | > 20000
37 | CNCC(O)COc1cccc(-c2cc(N(C)Cc3ccccn3)c3cnn(C(C)C)c3n2)c1 (centres unmarked) [Example 3-9] | 10000 to 20000
38 | CC(C)n1ncc2c(N3CCOCC3)cc(-c3cccc(CCC(O)CN)c3)nc21 (centres unmarked) [Example 13-9] | > 20000
39 | CNCC(O)COc1cccc(-c2cc(NCCCCCCNC(=O)c3ccn(C)n3)c3cnn(C(C)C)c3n2)c1 (centres unmarked) [Example 66-1] | > 20000

Further lines, results first:

Row | IC50 [nM] | Compound
40 | 5000 to 10000 | CNCC(O)COc1cc(OC)cc(-c2cc(N(C)C3CCOCC3)n3ncc(C(C)C)c3n2)c1 (centres unmarked) [Example 2-6]
41 | > 20000 | CNCC(O)COc1cc(OC)cc(-c2cc(-c3cnc4[nH]ccc4c3)nc3c(C(C)C)cnn23)c1 (centres unmarked) [Example 1-7]
42 | > 20000 | CNCC(O)COc1cccc(-c2nc(NCc3ccccn3)c3cnn(C(C)(C)C)c3n2)c1 (centres unmarked) [Example 33-5]
43 | > 20000 | CNCC(O)COc1cccc(-c2nc(N3CCOCC3)c3cnn(C(C)(C)C)c3n2)c1 (centres unmarked) [Example 20-5]
44 | > 20000 | CNCC(O)COc1cc(Cl)cc(-c2cc(NC3CCOCC3)c3cnn(C(C)C)c3n2)c1 (centres unmarked) [Example 2-4]
45 | > 20000 | Cc1cc(C)c(CNC(=O)c2cc(-c3cccc(OCC(O)CN)c3)nc3c2cnn3C(C)C)c(=O)[nH]1 (centres unmarked) [Example 2-8]
46 | > 20000 | CC(C)n1ncc2c(N[C@@H]3CO[C@H]4OCC[C@H]43)cc(-c3cccc(OCC(O)CN)c3)nc21 (some centres unmarked) [Example 5-8]
47 | > 20000 | CNCC(O)COc1cc(Cl)cc(-c2cc(N[C@@H]3CCOC3)n3ncc(C(C)C)c3n2)c1 (some centres unmarked) [Example 29-6]
48 | 10000 to 20000 | Cc1nn(C(C)C)c2nc(-c3cccc(OCC(O)CN)c3)cc(N3CCOCC3)c12 (centres unmarked) [Example 1-2]
49 | > 20000 | CC(C)n1ncc2c(N3CCOCC3)cc(-c3cc(F)cc(OCC(O)CN)c3)nc21 (centres unmarked) [Example 7-8]
50 | 10000 to 20000 | Cc1cc(OCC(O)CN)cc(-c2cc(N3CCOCC3)c3cnn(C(C)C)c3n2)c1 (centres unmarked) [Example 4-4]
